The term IC50 denotes the concentration needed to halve the response being measured. One may read the CC50 as the concentration that lowers cell viability or growth by half.

The target of data set [1] is T1, luciferase enzyme (Photinus pyralis, UniProt P08659).
T1 construct: expressed in transfected cells; host or cells: BHK 26.5 (BHK cells harbouring the WNV subgenomic replicon with the Luc gene); used as cell lysate
Description: in vitro luciferase enzyme assay with cell lysates. As to conditions: lysate of WNV replicon cell, 30 minutes incubation, up to 10 μM. The format is biochemical. Here is the method:
In two separate experiments, compounds were either tested with 3, 5, 10 μM or only 10 μM concentrations. The luciferase enzyme cell lysates were incubated with the indicated compounds for 30 minutes before luciferase substrate was added and the luminescence was measured. 1% DMSO was used as controls.
Although the initial HTS and the repeat assays have identified a number of compounds capable of reducing the luciferase activity produced in the WNV replicon BHK 26.5 cell line. It is conceivable that some of these inhibitors could have inhibited the luciferase enzyme itself rather than the WNV viral replication. To rule out this possibility, the identified compounds were tested in an in vitro luciferase enzyme assay by incubating the compounds with cell lysates prepared from the WNV replicon cell. […] The inhibition was not observed when the compounds were added immediately before luminescence reading, but after a 30-minute incubation of […] and the cell lysate, indicating a direct inhibition of the luciferase enzyme by the compounds.
(A replicon is a self-replicating genome or part of one, used to study replication in cells.)

Data set [2] deals with WNV RNA. Description: Northern blot of WNV RNA in compound treated replicon cells. The format is cell-based, West Nile virus. As to conditions: 48-hour treatment, compounds 10 μM, MPA 2.5%. Here is the method: FIG. 6 is a picture of a Northern blot gel of compound treated WNV replicon cells. 4×10^4 cells were seeded in 24 well plates. After 24 hours, the cells were treated with DMSO (lanes 2, 3) or the non-specific inhibitors, MPA (lane 1) or the compounds […] (lane 4), 18-B3 (lane 5) or 52-F2 (lane 6). After 48 hours, total RNA were isolated, separated on denaturing agrose gels and transferred to nylon membrane. Total RNA from a non-replicon cell (Huh-7 cell) was loaded in lane 7 as negative control. The membrane was probed with [^32P]-dCTP-labeled WNV NS5 and human beta-actin. The signal was quantified using a BioRad phosphoimager and WNV RNA level was calculated using beta-actin as a reference.
To confirm that the compounds can indeed inhibit WNV RNA replication, the WNV RNA level in the replicon cells treated with compounds by Northern blot analysis. Several hit compounds, 18-B3, 275-F9, 275-D9, 52-F2 and MPA were selected to treat the BHK 26.5 cells at 10 μM. […] The “hit” compounds 18-B3 and 275-F9 reduced WNV RNA by 1.5 and 2 fold, respectively (FIG. 6, lanes 4, 5). 18-B3 is one of the nine compounds that have similar structures while 275-F9 is one from another class of four compounds (Table 3).
Total cellular RNA was extracted by using the RNEASY kit (Qiagen NV, Netherlands). Northern blot analysis was done according to the protocol of Gu et al. 2002 (8). Briefly, 5 μg total RNA was electrophoresed through a 1.0% agarose gel containing 2.2M formaldehyde, transferred to a nylon membrane and immobilized by UV cross-linking (Stratagene, La Jolla, Calif.). After pre-hybridization in 5 ml of QuickHyb (Amersham, Piscataway, N.J. GE Healthcare, Giles, UK), [2P] dCTP-labeled probe made by random primer labeling of a 2.7 kb NS5 DNA fragment and a human beta-actin DNA at 65° C. The membrane was washed twice in 2×SSC/0.1% SDS for 10 min at room temperature and twice in 0.1×SSC/0.1% SDS for 15 min at 68° C. Membranes were exposed to Molecular Imager FX phosphoimager (BioRad, Hercules, Calif.) and the radiographic signals were collected and quantitated.

Data set [3] deals with WNV NS3 protein. Nature of the data set: Western blot of WNV protein in compound treated replicon cells. To be noted: 48-hour treatment, up to 10 uM; MPA 2.5 ug/ml. It counts as cell-based, West Nile virus. Here is the method: Mycophenolic acid (MPA) was used as positive control in the experiment. 4×10^4 cells were seeded in 24 well plates 24 hours before the various concentrations of compounds were added. After 48 hours of drug treatment, SDS-Sample buffer were added to the wells to lyse the cells. The protein samples were separated on SDS-PAGE and transferred to PVDF membrane. Viral protein was detected by probing with a monoclonal antibody against WNV. The same membrane was stripped and probed for beta-actin with the signals shown at the bottom of the blot.
Although it is reassuring that multiple tests have yielded similar positive results, the ability of the compounds to inhibit WNV replication was further assessed in secondary assays. In the western blot analysis shown in FIG. 5, total cell proteins were prepared from WNV replicon cells treated with the hit compounds and the viral protein NS3 was detected with a monoclonal […] against West Nile virus (15). The same blots were stripped and probed for beta-actin to show equal loading. […] When compared with the IC50 determined for these compounds in the luciferase assay, there was a good correlation between the luciferase reduction and the viral protein reduction.
Total cell lysates from replicon cells were harvested from replicon cells in 1×SDS sample buffer. The lysates were heated at 70° C. for 10 min in the presence of DTT before electrophoresis on a 10% Tris-glycine SDS polyacrylamide gel (Invitrogen) in 1× Tris-glycine buffer. The protein was transferred to PVDF (Invitrogen) membrane. Following the transfer, the membrane was rinsed once with TBS containing 0.5% Tween-20 (TBS-Tween) and blocked in TBS-Tween containing 5% non-fat milk for 1 h. After washing with PBS-Tween, the membrane was incubated with the primary WNV antibody (15) at 1:3000 dilutions for 1 h at 25° C. Prior to incubation with HRP conjugated-mouset IgG secondary antibody (Amersham, Life Science, Piscataway, N.J.) diluted 1:5000, the blot was washed in PBS-Tween. Following the secondary antibody incubation, the blot was washed again and treated with Super Signal Chemiluminescent Reagent (Pierce) according to the manufacturer's protocol and exposed to X-ray film. For controls, the blots were stripped and re-probed with an antibody to beta-actin (Chemicon), which was detected with a goat anti-mouse horseradish peroxidase conjugate.
Background: A western blot detects proteins with antibodies after separation by electrophoresis.

For data set [4], the system named is WNV. Nature of the data set: WNV yield reduction assay (live virus) on BHK cells. The format is cell-based, West Nile virus. Here is the method: The antiviral assay for the 309-F6 compounds was conducted on BHK cells. The virus produced in the presence of 1% DMSO or various concentrations of compounds was tittered on Vero cells. The amount of virus relative to the 1% DMSO control was plotted on the y-axis; the concentration of the compound 309F6 is shown in μM on the x-axis. Data from two independently treated wells (Test 1 and Test 2) are shown.
To measure activity against live WNV, BHK cells were plated in 96-well plates at a concentration of 12,000 cells/well. One day later the cells were infected with WNV for 1 h at an MOI of 0.05. The cells were then washed once and re-fed with fresh DMEM containing dilutions of the test compound. Plates were then incubated at 37° C. for 48 h, the supernatant collected and the WNV produced titered. For virus titration, Vero cells were plated in 96-well plates at 8000 cells/well and incubated overnight. The Vero cell monolayer were then infected for 1 h with various dilutions of the WNV supernatant, overlaid with media containing 0.6% tragacanth (ICN, CA) and incubated at 37° C. for 48 h. The culture media was then aspirated; the plate was rinsed, air-dried, and fixed with 50 μl/well acetone/methanol (50:50). Viral foci were detected for enumeration by immunostaining as described previously (15).

The subject of data set [5] is BHK 26.5 replicon cells. Description: MTT toxicity assay on BHK 26.5 replicon cells. The format is cell-based. From the text:
The HTS strategy follows the flowchart outlined in FIG. 2. 35,000 compounds were screened from a chemical library described below, using a cutoff of 50% reduction in luminescence readout as the criteria for further study. Upon completion of the screen, approximately 1100 compounds were selected, making the hit rate of 3%. This is considerably higher than expected, implying many false positive and/or cytotoxic compounds. Nevertheless, the compounds were picked out from the “daughter” plates and re-checked at a single 10 μM concentration. In addition, a duplicate 96 well plates were also plated and the toxicity of the compounds was determined in an MTT assay. Upon completion of these assays, most compounds were disqualified as either false positives or being toxicity to cells. As a result, only a small number of compounds were further analyzed directly from the “mother” plate stock. After IC50 determination and secondary assay to rule out luciferase inhibitors, 23 “hits” were identified.
(§1) Replicon-harboring cells were plated 96-well plates at 10,000 cells per well in MEM plus 3% FBS. 24 hours after plating, compounds were added to the wells by a Robotic liquid handler (Biomek NX) to a final concentration of 10 μM and 1% DMSO. For each 96 well plate, A1 to A8 were left open, H1 to H4 contained 1% DMSO, H5-H8 contained Mycophenolic acid (Sigma-Aldrich, St. Louis, Mo.), which was included as positive controls. After 24 hours of treatment, the media were removed and the luciferase activity expressed in the replicon cells was quantified. When cyto-toxicity was measured, duplicate 96 well plates were plated with BHK 26.5 replicon cells. One plate was used for luciferase assay and one plate was used for measuring toxicity using MTT assay.
(§2) Compound toxicity was determined by MTT assay. For the MTT assay, the cell medium was removed and the monolayers were incubated with 100 μl/well of 0.5 mg/ml MTT for 6 h at 37° C. The MTT solution was then aspirated and 100 μl/well of the 10% SDS (in 0.01N HCl) was added, followed by spectrophotometric quantitation (570 nm) of the insoluble MIT reaction product.
A general note: Tetrazolium dyes change colour on reduction, which living cells bring about.

The subject of data set [6] is BHK cells. Nature of the data set: toxicity (MTT, CC50) in BHK cells parallel to WNV infection assay. As to conditions: MTT assay, 40 μM highest concentration used; read-out: Tox CC50. It counts as cell-based. Here is the method: (§3) Several of these original compounds selected from the WNV replicon based screen were evaluated in an antiviral assay against WNV live virus. […] Modifications of this compound would be further investigated
(§4) The toxicity of 101-G7 was also measured by MTT assay and CC50 was calculated. 40 μM is highest concentration used.
as §2

Assay in data set [7]: as above
It counts as cell-based. As to conditions: hamster; highest concentration used 40 μM. Here is the method: as §3, §4, §2

Data set [8] relates to WNV replicon. Description: WNV replicon luciferase assay in BHK 26.5 cells (HTS, re-test, IC50). The format is cell-based, West Nile virus. Here is the method:
Ten micromolar concentrations of a selected compound were incubated with BHK 26.5 cells expressing luciferase whose activity is dependent upon WNV replicon replication (FIG. 1A). Primary “hits” were defined by the ability to reduce the amount of luciferase enzyme activity by more than 50%, compared to controls.
To quantify and rank the activity of the 23 remaining compound “hits”, a serial dilution of each compound was incubated with WNV replicon cells to determine the concentration that inhibits 50% of the luciferase readout (IC50s). […] A number of compounds had significant effect only at the highest, 10 μM concentration. However, several compounds had IC50s between 2 and 5 (Table 3), which is very reasonable for primary HTS hits from a compound library. Only a few compounds could cause 90% inhibition in the replicon cells at the concentrations tested.
as §1
Luciferase assay was performed by using the STEADY GLO reagent (Promega Corp. Madison, Wis.) according to the manufacturer's recommendation with slight modifications. Briefly, the culture media from the 96 wells were removed by dumping on paper towels.
100 μl of a 1:1 mixture of luciferase regent and culture media were added to the plate. After 5-minute incubation, the luminescence was read on a TOPCOUNT (PerkinElmer, Wellesley, Mass.).

T1 sequence (P08659 whole entry): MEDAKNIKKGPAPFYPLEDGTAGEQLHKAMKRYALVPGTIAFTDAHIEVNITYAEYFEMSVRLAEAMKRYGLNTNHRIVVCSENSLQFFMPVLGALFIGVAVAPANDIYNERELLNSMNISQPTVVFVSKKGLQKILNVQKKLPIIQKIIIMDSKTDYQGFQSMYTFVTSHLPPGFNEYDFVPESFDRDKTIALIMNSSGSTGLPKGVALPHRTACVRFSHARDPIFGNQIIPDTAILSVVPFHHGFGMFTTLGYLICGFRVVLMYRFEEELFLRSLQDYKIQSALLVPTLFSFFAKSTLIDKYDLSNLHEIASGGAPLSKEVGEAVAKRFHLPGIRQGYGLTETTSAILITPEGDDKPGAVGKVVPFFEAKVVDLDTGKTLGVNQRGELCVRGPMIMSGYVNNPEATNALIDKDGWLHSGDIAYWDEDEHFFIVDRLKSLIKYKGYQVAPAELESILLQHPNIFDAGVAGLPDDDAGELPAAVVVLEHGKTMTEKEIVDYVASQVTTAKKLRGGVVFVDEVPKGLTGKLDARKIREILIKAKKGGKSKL

On to `COc1c(C)c2c(c(O)c1C/C=C(\C)CCC(=O)O)C(=O)OC2` [MPA, Mycophenolic acid, reference compound], for which, in data set [1], the “luciferase enzyme activity in cell lysate” value is recorded as “did not reduce the luciferase activity”. For the same molecule, the “WNV RNA reduction” value in data set [2] is “more than five fold”. For the same molecule, the “WNV NS3 protein level (western blot)” value in data set [3] is “reduced WNV NS3 protein level”.

Take `Cc1ccc(-c2csc(Nc3ccc(S(=O)(=O)Nc4cc(C)on4)cc3)n2)cc1` [Compound 101-G7, N-(5-Methyl-isoxazol-3-yl)-4-(4-p-tolyl-thiazol-2-ylamino)-benzenesulfonamide]: the IC50 in data set [4] (West Nile virus, BHK, read-out: IC50 in WNV infection assay, re-synthesized, three independent experiments in duplicate) was 3 to 15 µM; in data set [8] (West Nile virus, 24 h), 5 µM. The “activity in the WNV infection assay” value in data set [4] (live WNV) is “retained activity”. In data set [5] (MTT assay), the “Toxicity (uM)*” value is above 10 µM. Further, the “toxicity in replicon assays” value in data set [5] (re-synthesized compound, MTT) is listed as “about 80 μM”. Moreover, the cytotoxic concentration (CC50) in data set [6] and in data set [7] was above 40 µM in each case. The “Fold decrease (HTS)” value in data set [8] (luciferase activity, 10 μM compound, 24 hours, BHK 26.5 cells) stood at 6 Fold. Besides, in data set [8] (luciferase activity, re-checked at a single 10 μM concentration), the “Fold decrease (Re-test)” value is 2 Fold. The “reducing the luciferase activity of the WNV replicon cell” value in data set [8] (re-synthesized compound, 24 and 48 hour incubation) is “good activity”.

The record behind these values is patent US20100075993A1, “SMALL MOLECULE INHIBITORS AGAINST WEST NILE VIRUS REPLICATION” (DREXEL UNIVERSITY, priority 2005, published 2010).
